Columns and labels:
Assay in all cases: relative viability (nuclei count vs DMSO), 5 days (fraction); higher = more cells survive
IPA-3 + Crizotinib = compound: C1=CC=C2C(=C1)C=CC(=C2SSC3=C(C=CC4=CC=CC=C43)O)O [IPA-3] + C[C@@H](Oc1cc(-c2cnn(C3CCNCC3)c2)cnc1N)c1c(Cl)ccc(F)c1Cl [Crizotinib] (partner 1 µM)
How it was run: (§1)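 One day after seeding in 1536-well plates, lung cancer cell lines were dosed by pin tool. Dosing was either single-drug or a fixed anchor-drug dose plus five library-drug doses (not always all listed) in √10 steps. After 5 days, nuclei were stained in one fix-and-stain step and counted on 4× images, and relative viability is the nuclei count of treated wells over that of vehicle wells, given as the median of duplicate plates.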

IPA-3 + Linsitinib = compound: C1=CC=C2C(=C1)C=CC(=C2SSC3=C(C=CC4=CC=CC=C43)O)O [IPA-3] + C[C@]1(O)C[C@@H](c2nc(-c3ccc4ccc(-c5ccccc5)nc4c3)c3c(N)nccn32)C1 [Linsitinib] (partner 1 µM)
How it was run: as §1

IPA-3 + Alpelisib = compound: C1=CC=C2C(=C1)C=CC(=C2SSC3=C(C=CC4=CC=CC=C43)O)O [IPA-3] + Cc1nc(NC(=O)N2CCC[C@H]2C(N)=O)sc1-c1ccnc(C(C)(C)C(F)(F)F)c1 [Alpelisib] (partner 2 µM)
How it was run: as §1

IPA-3 + Olaparib = compound: C1=CC=C2C(=C1)C=CC(=C2SSC3=C(C=CC4=CC=CC=C43)O)O [IPA-3] + O=C(c1cc(Cc2n[nH]c(=O)c3ccccc23)ccc1F)N1CCN(C(=O)C2CC2)CC1 [Olaparib] (partner 8 µM)
How it was run: as §1

| Cell Line | relative viability (IPA-3 + Crizotinib; first compound 0.2 µM) | relative viability (IPA-3 + Crizotinib; first compound 0.6325 µM) | relative viability (IPA-3 + Crizotinib; first compound 2 µM) | relative viability (IPA-3 + Crizotinib; first compound 6.325 µM) | relative viability (IPA-3 + Crizotinib; first compound 20 µM) | relative viability (IPA-3 + Linsitinib; first compound 0.2 µM) | relative viability (IPA-3 + Linsitinib; first compound 0.6325 µM) | relative viability (IPA-3 + Linsitinib; first compound 2 µM) | relative viability (IPA-3 + Linsitinib; first compound 6.325 µM) | relative viability (IPA-3 + Linsitinib; first compound 20 µM) | relative viability (IPA-3 + Alpelisib; first compound 0.2 µM) | relative viability (IPA-3 + Alpelisib; first compound 0.6325 µM) | relative viability (IPA-3 + Alpelisib; first compound 2 µM) | relative viability (IPA-3 + Alpelisib; first compound 6.325 µM) | relative viability (IPA-3 + Alpelisib; first compound 20 µM) | relative viability (IPA-3 + Olaparib; first compound 0.2 µM) | relative viability (IPA-3 + Olaparib; first compound 0.6325 µM) | relative viability (IPA-3 + Olaparib; first compound 2 µM) | relative viability (IPA-3 + Olaparib; first compound 6.325 µM) | relative viability (IPA-3 + Olaparib; first compound 20 µM) |
| --- | --- | --- | --- | --- | --- | --- | --- | --- | --- | --- | --- | --- | --- | --- | --- | --- | --- | --- | --- | --- |
| HCC-44 | 0.859 | 0.735 | 0.917 | 0.804 | 0.807 | 0.772 | 0.588 | 0.708 | 0.632 | 0.686 | 0.788 | 0.715 | 0.843 | 0.683 | 0.775 | 0.961 | 0.983 | 1.03 | 1.02 | 1.02 |
| HCC-78 | 0.341 | 0.341 | 0.365 | 0.322 | 0.399 | 0.569 | 0.597 | 0.454 | 0.583 | 0.635 | 0.327 | 0.406 | 0.244 | 0.347 | 0.51 | 0.885 | 0.836 | 0.805 | 0.881 | 0.932 |
| HCC-366 | 0.697 | 0.564 | 0.617 | 0.521 | 0.618 | 0.996 | 0.627 | 0.723 | 0.756 | 0.696 | 0.499 | 0.425 | 0.432 | 0.477 | 0.333 | 0.532 | 0.345 | 0.321 | 0.34 | 0.277 |
| HCC-827 | 0.927 | 0.89 | 0.865 | 0.873 | 0.859 | 0.916 | 0.943 | 0.935 | 0.917 | 0.925 | 0.972 | 0.961 | 0.971 | 0.978 | 1.01 | 0.818 | 0.579 | 0.557 | 0.737 | 0.638 |
| HOP-62 | 1.3 | 0.643 | 1.01 | 1.01 | 0.922 | 0.903 | 1.07 | 0.754 | 1.05 | 1.2 | 1.08 | 0.926 | 0.952 | 0.945 | 0.93 | 0.848 | 0.401 | 0.47 | 0.392 | 0.274 |
| IA-LM | 1.25 | 0.683 | 0.904 | 0.553 | 0.555 | 0.922 | 0.526 | 0.639 | 0.505 | 0.404 | 0.884 | 0.735 | 0.731 | 0.703 | 0.738 | 1.22 | 0.814 | 0.906 | 0.651 | 0.814 |
| LC-2-ad | 0.499 | 0.523 | 0.419 | 0.477 | 0.488 | 0.885 | 0.845 | 0.86 | 0.795 | 0.86 | 0.927 | 0.808 | 0.897 | 0.82 | 0.941 | 0.811 | 0.738 | 0.699 | 0.751 | 0.683 |
| LCLC-97TM1 | 0.439 | 0.355 | 0.448 | 0.315 | 0.343 | 0.208 | 0.215 | 0.181 | 0.202 | 0.215 | 0.281 | 0.299 | 0.241 | 0.232 | 0.246 | 0.397 | 0.337 | 0.475 | 0.265 | 0.359 |
| LCLC-103H | 1.07 | 0.947 | 1.03 | 1.15 | 1.1 | 1.1 | 1.07 | 1.01 | 1.1 | 1.16 | 0.926 | 0.806 | 0.81 | 0.943 | 1.02 | 0.765 | 0.693 | 0.78 | 0.681 | 0.789 |
| LK-2 | 0.202 | 0.229 | 0.227 | 0.22 | 0.193 | 0.553 | 0.436 | 0.595 | 0.526 | 0.518 | 1.13 | 1.02 | 1.19 | 1.19 | 1.22 | 0.831 | 0.615 | 0.788 | 0.988 | 0.938 |
| LOU-NH91 | 0.723 | 0.757 | 0.809 | 0.728 | 0.801 | 0.985 | 0.92 | 0.979 | 0.99 | 1.14 | 0.717 | 0.702 | 0.723 | 0.674 | 0.914 | 0.953 | 0.911 | 0.965 | 0.896 | 1.03 |
| NCI-H522 | – | – | – | – | – | – | – | – | – | – | – | – | – | – | – | 0.52 | 0.663 | 0.699 | 0.571 | 0.671 |
| NCI-H1395 | – | – | – | – | – | 1.2 | 1.04 | 1.19 | 1.02 | 1.11 | 1.06 | 1.29 | 1.04 | 1.26 | 1.01 | 0.507 | 0.456 | 0.465 | 0.474 | 0.457 |
| NCI-H1563 | 0.899 | 0.891 | 0.938 | 1.11 | 1.02 | 1.31 | 1.24 | 1.32 | 1.34 | 1.3 | 0.987 | 0.982 | 1.06 | 0.949 | 1.07 | – | – | – | – | – |
| NCI-H1648 | – | – | – | – | – | – | – | – | – | – | – | – | – | – | – | 1.05 | 0.906 | 0.84 | 0.739 | 0.873 |
| NCI-H1650 | 1.04 | 0.816 | 1.14 | 0.938 | 1.28 | – | – | – | – | – | – | – | – | – | – | 0.947 | 0.74 | 0.877 | 0.715 | 0.746 |
| NCI-H1793 | – | – | – | – | – | 1.24 | 0.794 | 0.977 | 1.06 | 1.15 | 0.786 | 0.677 | 0.757 | 0.739 | 0.785 | 0.699 | 0.773 | 0.923 | 0.893 | 1.2 |
| NCI-H2170 | 1.24 | 1.11 | 1.18 | 1.16 | 1.33 | – | – | – | – | – | 0.871 | 0.781 | 0.894 | 0.727 | 0.806 | 0.67 | 0.561 | 0.646 | 0.614 | 0.624 |
| NCI-H2342 | – | – | – | – | – | – | – | – | – | – | – | – | – | – | – | 0.468 | 0.4 | 0.559 | 0.46 | 0.473 |
| SW 900 | – | – | – | – | – | – | – | – | – | – | – | – | – | – | – | 0.684 | 0.683 | 0.811 | 0.832 | 1.03 |

Reference: the supplement of paper PMC10307832
